# Measurements: patent publication US5466671A, “Apidaecin-type peptide antibiotics with improved activities and/or different antibacterial spectrum” (priority 1994, dated 1995)
# Residues, ends and D or L forms follow the SMILES beside them. No end group written: not given here.
# Assays:
# [1] = test system: Escherichia coli (ATCC11775); assay: Inhibition zone assay (agar plate); type: cell-based; conditions: agar plate, 50 nanomoles/well, 3 mm wells
# [2] = test system: Enterobacter cloacae; assay: Inhibition zone assay (agar plate); type: cell-based; conditions: agar plate, 50 nanomoles/well, 3 mm wells
# [3] = test system: Erwinia amylovora; assay: Inhibition zone assay (agar plate); type: cell-based; conditions: agar plate, 50 nanomoles/well, 3 mm wells
# [4] = test system: Klebsiella pneumoniae; assay: Inhibition zone assay (agar plate); type: cell-based; conditions: agar plate, 50 nanomoles/well, 3 mm wells
# [5] = test system: Salmonella typhimurium; assay: Inhibition zone assay (agar plate); type: cell-based; conditions: agar plate, 50 nanomoles/well, 3 mm wells
# [6] = test system: Yersinia enterocolitica; assay: Inhibition zone assay (agar plate); type: cell-based; conditions: 50 nanomoles/well, 3 mm wells
# [7] = test system: Acinetobacter calcoaceticus; assay: Inhibition zone assay (agar plate); type: cell-based; conditions: agar plate, 50 nanomoles/well, 3 mm wells
# [8] = test system: Agrobacterium tumefaciens; assay: Inhibition zone assay (agar plate); type: cell-based; conditions: agar plate, 50 nanomoles/well, 3 mm wells
# [9] = test system: Francisella tularensis; type: cell-based; conditions: agar plate, 50 nanomoles/well, 3 mm wells
# [10] = test system: Pseudomonas syringae; assay: Inhibition zone assay (agar plate); type: cell-based; conditions: agar plate, 50 nanomoles/well, 3 mm wells
# [11] = test system: Rhizobium meliloti; assay: Inhibition zone assay (agar plate); type: cell-based; conditions: 50 nanomoles/well, 3 mm wells
# [12] = test system: Haemophilus influenzae; assay: Inhibition zone assay (agar plate); type: cell-based; conditions: 50 nanomoles/well, 3 mm wells
# [13] = test system: E. coli Apid^R; assay: Minimal inhibitory concentration (liquid culture); type: cell-based; conditions: a-b = highest concentration with growth - lowest without growth
# Description: For details see `Experimental Procedures`.
# [14] = test system: E. coli 11775; assay: Minimal inhibitory concentration (liquid culture); conditions: a-b = highest concentration with growth - lowest without growth
# [15] = test system: E. coli 23802; assay: Minimal inhibitory concentration (liquid culture); conditions: inoculum 5000 CFU/ml; a-b = highest concentration with growth - lowest without growth
# [16] = test system: E. coli 25922; assay: Minimal inhibitory concentration (liquid culture); conditions: inoculum 1100 CFU/ml; a-b = highest concentration with growth - lowest without growth
# [17] = test system: S. typhimurium; assay: Minimal inhibitory concentration (liquid culture); conditions: inoculum 8 × 10^6 CFU/ml; a-b = highest concentration with growth - lowest without growth
# [18] = test system: A. calcoaceticus; assay: Minimal inhibitory concentration (liquid culture); conditions: inoculum 16 × 10^6 CFU/ml; a-b = highest concentration with growth - lowest without growth
# [19] = test system: M. morganii; assay: Minimal inhibitory concentration (liquid culture); conditions: inoculum 400 CFU/ml; a-b = highest concentration with growth - lowest without growth
# [20] = test system: Y. enterocolitica; assay: Minimal inhibitory concentration (liquid culture); conditions: inoculum 5000 CFU/ml; a-b = highest concentration with growth - lowest without growth
# [21] = test system: Escherichia coli (K514); type: cell-based; conditions: agar plate, 50 nanomoles/well, 3 mm wells
# [22] = test system: Salmonella typhi; type: cell-based; conditions: agar plate, 50 nanomoles/well, 3 mm wells
Compound,inhibition zone diameter (number of plus signs) [1],inhibition zone diameter (number of plus signs) [2],inhibition zone diameter (number of plus signs) [3],inhibition zone diameter (number of plus signs) [4],inhibition zone diameter (number of plus signs) [5],inhibition zone diameter (number of plus signs) [6],inhibition zone diameter (number of plus signs) [8],inhibition zone diameter (number of plus signs) [9],inhibition zone diameter (number of plus signs) [10],inhibition zone diameter (number of plus signs) [12],minimal inhibitory concentration (MIC) ([13]; inoculum 12 × 10^6 CFU/ml),minimal inhibitory concentration (MIC) ([13]; inoculum 1000 CFU/ml),minimal inhibitory concentration (MIC) ([14]; inoculum 16 × 10^6 CFU/ml),minimal inhibitory concentration (MIC) ([14]; inoculum 1200 CFU/ml),minimal inhibitory concentration (MIC) [15],minimal inhibitory concentration (MIC) [16],minimal inhibitory concentration (MIC) [17],minimal inhibitory concentration (MIC) [18],minimal inhibitory concentration (MIC) [19],minimal inhibitory concentration (MIC) [20],further results
"CC(C)C[C@H](NC(=O)[C@H](CCCNC(=N)N)NC(=O)[C@@H]1CCCN1C(=O)[C@H](Cc1c[nH]cn1)NC(=O)[C@@H]1CCCN1C(=O)[C@@H]1CCCN1C(=O)[C@H](CCCNC(=N)N)NC(=O)[C@@H]1CCCN1C(=O)[C@@H]1CCCN1C(=O)[C@@H](NC(=O)[C@H](CCC(N)=O)NC(=O)[C@H](CCC(N)=O)NC(=O)[C@@H]1CCCN1C(=O)[C@H](CCCNC(=N)N)NC(=O)[C@@H]1CCCN1C(=O)[C@H](CCCCN)NC(=O)[C@@H](N)CC(N)=O)C(C)C)C(=O)O [Yj -S, Asn--Lys--Pro--Arg--Pro--Gln--Gln--Val--Pro--Pro--Arg--Pro--Pro--His--Pro--Arg--Leu] (H-NKPRPQQVPPRPPHPRL-OH)",+++ ((+++) 10-14 mm),++ ((++) 7-9 mm),++++ ((++++) 15-19 mm),++ ((++) 7-9 mm),+++ ((+++) 10-14 mm),++ ((++) 7-9 mm),++ ((++) 7-9 mm),+ ((+) 5-6 mm),++++ ((++++) 15-19 mm),++ ((++) 7-9 mm),5 to 10 µg/mL,5 to 10 µg/mL,0.1 to 0.5 µg/mL,0.1 to 0.5 µg/mL,1 to 5 µg/mL,0.1 to 0.5 µg/mL,0.1 to 0.5 µg/mL,2 to 10 µg/mL,1 to 5 µg/mL,1 to 5 µg/mL,inhibition zone diameter (number of plus signs) [7]: ++ ((++) 7-9 mm); inhibition zone diameter (number of plus signs) [11]: ++++ ((++++) 15-19 mm)
"CC(C)C[C@H](NC(=O)[C@H](CCCNC(=N)N)NC(=O)[C@@H]1CCCN1C(=O)[C@H](Cc1c[nH]cn1)NC(=O)[C@@H]1CCCN1C(=O)[C@@H]1CCCN1C(=O)[C@H](CCCNC(=N)N)NC(=O)[C@@H]1CCCN1C(=O)[C@@H]1CCCN1C(=O)[C@@H](NC(=O)[C@H](CCC(N)=O)NC(=O)[C@H](CCC(N)=O)NC(=O)[C@@H]1CCCN1C(=O)[C@H](CCCNC(=N)N)NC(=O)[C@@H]1CCCN1C(=O)[C@H](CCCCN)NC(=O)[C@H](CC(N)=O)NC(=O)[C@@H](N)CO)C(C)C)C(=O)O [Yj +S, Ser--Asn--Lys--Pro--Arg--Pro--Gln--Gln--Val--Pro--Pro--Arg--Pro--Pro--His--Pro--Arg--Leu] (H-SNKPRPQQVPPRPPHPRL-OH)",+++ ((+++) 10-14 mm),++ ((++) 7-9 mm),+++ ((+++) 10-14 mm),++ ((++) 7-9 mm),+++ ((+++) 10-14 mm),,,++ ((++) 7-9 mm),++++ ((++++) 15-19 mm),+++ ((+++) 10-14 mm),10 to 20 µg/mL,1 to 5 µg/mL,0.1 to 0.5 µg/mL,0.1 to 0.5 µg/mL,0.5 to 1 µg/mL,0.1 to 0.5 µg/mL,0.1 to 0.5 µg/mL,2 to 10 µg/mL,0.5 to 1 µg/mL,1 to 5 µg/mL,inhibition zone diameter (number of plus signs) [21]: ++ ((++) 7-9 mm); inhibition zone diameter (number of plus signs) [22]: ++ ((++) 7-9 mm); inhibition zone diameter (number of plus signs) [7]: + ((+) 5-6 mm)
NRPTYVPPPRPPHPRL [Ck P],+++ ((+++) 10-14 mm),+++ ((+++) 10-14 mm),+++ ((+++) 10-14 mm),++ ((++) 7-9 mm),++++ ((++++) 15-19 mm),+++ ((+++) 10-14 mm),++++ ((++++) 15-19 mm),++ ((++) 7-9 mm),++++ ((++++) 15-19 mm),++ ((++) 7-9 mm),> 40 µg/mL,> 40 µg/mL,1 to 5 µg/mL,0.1 to 0.5 µg/mL,20 to 40 µg/mL,0.5 to 1 µg/mL,1 to 5 µg/mL,> 20 µg/mL,> 40 µg/mL,1 to 5 µg/mL,inhibition zone diameter (number of plus signs) [21]: ++ ((++) 7-9 mm); inhibition zone diameter (number of plus signs) [11]: +++++ ((+++++) 20 or more min)
"CC(C)C[C@H](NC(=O)[C@H](CCCNC(=N)N)NC(=O)[C@@H]1CCCN1C(=O)[C@H](Cc1c[nH]cn1)NC(=O)[C@@H]1CCCN1C(=O)[C@@H]1CCCN1C(=O)[C@H](CCCNC(=N)N)NC(=O)[C@@H]1CCCN1C(=O)[C@H](C)NC(=O)[C@@H]1CCCN1C(=O)[C@@H](NC(=O)[C@H](Cc1ccc(O)cc1)NC(=O)[C@@H](NC(=O)[C@@H]1CCCN1C(=O)[C@H](CCCNC(=N)N)NC(=O)[C@@H](N)CC(N)=O)[C@@H](C)O)C(C)C)C(=O)O [Ck A, Asn--Arg--Pro--Thr--Tyr--Val--Pro--Ala--Pro--Arg--Pro--Pro--His--Pro--Arg--Leu] (H-NRPTYVPAPRPPHPRL-OH)",+++ ((+++) 10-14 mm),++ ((++) 7-9 mm),+++ ((+++) 10-14 mm),++ ((++) 7-9 mm),+++ ((+++) 10-14 mm),+++ ((+++) 10-14 mm),++++ ((++++) 15-19 mm),+ ((+) 5-6 mm),+++ ((+++) 10-14 mm),++ ((++) 7-9 mm),> 40 µg/mL,> 40 µg/mL,1 to 5 µg/mL,0.1 to 0.5 µg/mL,> 40 µg/mL,1 to 5 µg/mL,1 to 5 µg/mL,> 20 µg/mL,20 to 40 µg/mL,1 to 5 µg/mL,inhibition zone diameter (number of plus signs) [21]: ++ ((++) 7-9 mm); inhibition zone diameter (number of plus signs) [11]: ++++ ((++++) 15-19 mm)
